This is an account of results in PMC3444172 (The Journal of organic chemistry, 2012).

Entries after “also recorded” stand apart in the source; their conditions may differ. Read-outs that look alike come from different tables or passages of the source.

Assay [1] has as its target T1, M. tuberculosis lumazine synthase (recombinant homopentameric) (Mycobacterium tuberculosis, UniProt P9WHE9). It counts as biochemical. The settings on record: for Kcat (rate constant ES → E + P): pH 7.
The target of assay [2] is T2, E. coli riboflavin synthase (recombinant) (Escherichia coli, UniProt P0AFU8). Put plainly: Kinetic assay of riboflavin synthase inhibitors, E. coli enzyme. The assay is classed as biochemical. The conditions noted are these: for Kcat (rate constant ES → E + P) / Kis (ES + I ⇌ ESI) / Ks (substrate dissociation constant, E + S ⇌ ES): substrate 3 varied, Tris·HCl pH 7.0.
T2 sequence (P0AFU8 whole entry): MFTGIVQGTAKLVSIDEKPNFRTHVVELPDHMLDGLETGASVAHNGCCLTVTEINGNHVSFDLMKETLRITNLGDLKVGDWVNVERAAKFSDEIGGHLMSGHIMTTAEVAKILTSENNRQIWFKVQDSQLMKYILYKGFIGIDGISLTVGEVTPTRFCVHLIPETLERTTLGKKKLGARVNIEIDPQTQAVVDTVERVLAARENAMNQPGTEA

The target of assay [3] is T3, S. pombe lumazine synthase (recombinant homopentameric) (Schizosaccharomyces pombe, UniProt Q9UUB1).
T3 sequence (Q9UUB1 1-159): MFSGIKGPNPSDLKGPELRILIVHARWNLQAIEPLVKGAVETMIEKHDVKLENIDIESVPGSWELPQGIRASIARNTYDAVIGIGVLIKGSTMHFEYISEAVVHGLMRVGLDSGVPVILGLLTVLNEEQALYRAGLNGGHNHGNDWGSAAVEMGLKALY
Put plainly: Kinetic assay of lumazine synthase inhibitors, S. pombe enzyme. It counts as biochemical. The conditions noted are these: for Kcat (rate constant ES → E + P) / Kis (ES + I ⇌ ESI) / Ks (substrate dissociation constant, E + S ⇌ ES): substrate 2 constant, substrate 1 varied, Tris·HCl pH 7.0.

Assay [4] deals with M. tuberculosis riboflavin synthase (recombinant) (Mycobacterium tuberculosis, UniProt P9WK35). Kind of assay: Kinetic assay of riboflavin synthase inhibitors, M. tuberculosis enzyme. The assay is classed as biochemical.
Sequence of M. tuberculosis riboflavin synthase (recombinant) (P9WK35 whole entry): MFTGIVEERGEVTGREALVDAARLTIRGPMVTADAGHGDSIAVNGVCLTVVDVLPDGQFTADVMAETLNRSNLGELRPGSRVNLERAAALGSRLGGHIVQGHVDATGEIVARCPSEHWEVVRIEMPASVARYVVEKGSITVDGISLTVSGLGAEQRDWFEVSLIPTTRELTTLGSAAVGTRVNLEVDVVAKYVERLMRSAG
Assay [5] has as its system B. subtilis lumazine synthase (recombinant β60 capsid). The settings on record: previously reported compounds; cited from earlier work.
The target in assay [6] is Ashbya gossypii riboflavin synthase. The settings on record: cited from earlier work.
Assay [7] deals with baker's yeast riboflavin synthase. The settings on record: cited from earlier work.
Assay [8] has as its target T2, E. coli riboflavin synthase (recombinant). The conditions noted are these: previously reported compounds, cited from earlier work.
For assay [9], the target named is T1, M. tuberculosis lumazine synthase (recombinant homopentameric). The conditions noted are these: previously reported compounds, cited from earlier work.
Where [10] appears, read: substrate 2 constant, substrate 1 varied, Tris·HCl pH 7.0.
Where [11] appears, read: substrate 3 varied, Tris·HCl pH 7.0.

T1 sequence (P9WHE9 whole entry): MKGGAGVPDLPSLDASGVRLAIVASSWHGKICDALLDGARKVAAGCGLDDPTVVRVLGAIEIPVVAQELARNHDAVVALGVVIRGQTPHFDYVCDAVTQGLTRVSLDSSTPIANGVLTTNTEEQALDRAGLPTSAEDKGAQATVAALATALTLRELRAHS

For the molecule `CCOC(=O)C(=O)Nc1c(OC[C@H](O)[C@H](O)[C@H](O)CO)[nH]c(=O)[nH]c1=O` [Compound 36, Ethyl 2-(2,4-dioxo-6-((2S,3R,4R)-2,3,4,5-tetrahydroxypentyloxy)1,2,3,4-tetrahydropyrimidin-5-ylamino)-2-oxoacetate], the Mechanism of inhibition result in assay [1], in assay [2], in [3] and in assay [4] was “Uncompetitive” in each case. Besides, the “inhibitory activity in words” value in [1] (lumazine synthase inhibition, qualitative statement) is “completely inactive; also recorded: totally inactive”. For the same molecule, the “Kcat (rate constant ES → E + P)” value in assay [1] is listed as 0.26 ± 0.01 m^−1; in assay [2], 5.8 ± 0.2 m^−1; in [3], 2.7 ± 0.1 m^−1; in [4] (setting [11]) it was 0.25 ± 0.01 m^−1. The “Ki (E + I ⇌ EI)” value in assay [1] (setting [10]) was over 1000 µM. For the same molecule, the “Kis (ES + I ⇌ ESI)” value in assay [1] (setting [10]), in [2], in assay [3] and in assay [4] (setting [11]) was over 1000 µM throughout. The “Ks (substrate dissociation constant, E + S ⇌ ES)” value (“Ks” for short) in assay [1] (setting [10]) came to 34 ± 5 µM; in [2] it was 3.0 ± 0.3 µM; in assay [3] it was 6.4 ± 0.6 µM; in assay [4] (setting [11]), 5.0 ± 0.5 µM.

In the case of `Nc1c(OC[C@@H](O)[C@H](O)[C@@H](O)CO)[nH]c(=O)[nH]c1=O` [Compound 29, 5-Amino-6-((2R,3R,4S)-2,3,4,5-tetrahydroxypentyloxy)pyrimidine-2,4(1H,3H)-dione], the Mechanism of inhibition result in [1] is “Uncompetitive”; in assay [2] it was “Uncompetitive”; in assay [3], “Partial”; in [4], “Uncompetitive”. The “Kcat (rate constant ES → E + P)” value in assay [1] is recorded as 0.18 ± 0.01 m^−1; in assay [2], 3.2 ± 0.1 m^−1; in [3] it was 1.3 ± 0.0 m^−1; in [4] (setting [11]) it was 0.25 ± 0.01 m^−1. Besides, the “Kis (ES + I ⇌ ESI)” value in assay [1] (setting [10]) was over 1000 µM; in [2], over 1000 µM; in assay [3] it was 43 ± 8 µM; in assay [4] (setting [11]) it was 577 ± 121 µM. For the same molecule, the “Ks” value is 27 ± 2 µM in assay [1] (setting [10]), 2.5 ± 0.1 µM in assay [2], 1.2 ± 0.1 µM in assay [3] and 5.6 ± 0.5 µM in [4] (setting [11]).

In general, Ki refers to a dissociation constant, usually derived from enzyme kinetics or from competition with a known ligand. Take `O=c1[nH]c(=O)c2[nH]c(=O)c(=O)n(C[C@H](O)[C@H](O)[C@H](O)CO)c2[nH]1` [Compound 81, 6,7-dihydro-6,7-dioxo-8-ribityllumazine]: the Mechanism of inhibition entry in assay [5], in assay [8] and in assay [9] was “Competitive” each time. The Ki is 0.009 µM in assay [6] and 0.025 µM in [7]. For the same molecule, the “Kcat (rate constant ES → E + P)” value is listed as 15 ± 0 m^−1 in assay [8] (Tris·HCl pH 7.0) and 1.1 ± 0.1 m^−1 in assay [9] (Tris·HCl pH 7.0).

`COC(=O)C(=O)Nc1c(OC[C@H](O)[C@H](O)[C@H](O)CO)[nH]c(=O)[nH]c1=O` [Compound 37, Methyl 2-(2,4-dioxo-6-((2S,3R,4R)-2,3,4,5-tetrahydroxypentyloxy)1,2,3,4-tetrahydropyrimidin-5-ylamino)-2-oxoacetate]: the Mechanism of inhibition entry in [1] is on record as “Competitive”; in assay [2], “Uncompetitive”; in [3], “Partial”; in assay [4], “Uncompetitive”. In addition, the “Kcat (rate constant ES → E + P)” value in [1] was 0.18 ± 0.00 m^−1; in assay [2], 3.4 ± 0.1 m^−1; in assay [3], 1.5 ± 0.0 m^−1; in assay [4] (setting [11]), 0.22 ± 0.01 m^−1. In addition, the “Ks” value in assay [1] (setting [10]) is 29 ± 2 µM; in [2], 3.1 ± 0.2 µM; in assay [3], 1.7 ± 0.2 µM; in [4] (setting [11]) it was 4.1 ± 0.4 µM. For the same molecule, the “Kis (ES + I ⇌ ESI)” value in [2] was over 1000 µM; in assay [3], 56 ± 15 µM; in [4] (setting [11]) it was 868 ± 305 µM. Moreover, the “Ki (E + I ⇌ EI)” value in assay [4] (setting [11]) worked out at 868 µM.
